Literature values as cited in patent US12673027B2, “Method for the production of commercial nanoparticle and microparticle powders” (ICEUTICA PTY LTD., priority 2009, dated 2026).

Settings: absorption by the body

Tmax: 4 to 5 h
Structure (SMILES): Cc1cnc(NC(=O)C2=C(O)c3ccccc3S(=O)(=O)N2C)s1 [Meloxicam]
